From patent US20060069132A1, “Azolecarboxamide herbicides” (priority 2004, published 2006)

Tests used:
large crabgrass [1] = test: Test B pre-/postemergence herbicide test; assay type: in vivo, Digitaria sanguinalis; settings: for Plant response rating, Crabgrass, Large: preemergence; for Crabgrass, Large plant response rating: postemergence, visual rating, scale 0 (no effect) to 100 (complete control)
In short: (§1)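 Flooded paddy rice and barnyardgrass were treated at the 2-leaf stage; upland plantings received compound either on sown seed or on 1- to 4-leaf seedlings. All were kept 13–15 days in a greenhouse and scored visually, 0–100, relative to untreated plants.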

velvetleaf [2] = test: Test A pre-/postemergence herbicide test; assay type: in vivo, Abutilon theophrasti
In short: (§2)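 Visual injury rating on a 0–100 scale (0 no effect, 100 complete control) versus untreated controls, about ten days after treatment in greenhouse. Pre: directed soil spray onto seeded sandy loam. Post: spray to runoff on plants 2–10 cm tall at one- to two-leaf stage.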

corn = test: Test B pre-/postemergence herbicide test; assay type: in vivo, Zea mays; settings: for Plant response rating, Corn: preemergence; for Corn plant response rating: postemergence, visual rating, scale 0 (no effect) to 100 (complete control)
In short: as §1

barnyardgrass [3] = test: Test A pre-/postemergence herbicide test; assay type: in vivo, Echinochloa crus-galli
In short: as §2

morningglory [4] = test: Test B pre-/postemergence herbicide test; assay type: in vivo, Ipomoea coccinea; settings: for Plant response rating, Morningglory: preemergence; for Morningglory plant response rating: postemergence, visual rating, scale 0 (no effect) to 100 (complete control)
In short: (§3)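 Visual rating, 0 (no effect) to 100 (complete control), versus untreated controls after 13–15 d in greenhouse. Pre- and postemergence applications (postemergence plants 2–18 cm, 1–4 leaves); flooded paddy arm at 2-leaf stage. Compounds in non-phytotoxic solvent plus surfactant.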

velvetleaf [5] = test: Test B pre-/postemergence herbicide test; assay type: in vivo, Abutilon theophrasti; settings: for Plant response rating, Velvetleaf: preemergence; for Velvetleaf plant response rating: postemergence, visual rating, scale 0 (no effect) to 100 (complete control)
In short: as §1

barnyardgrass [6] = test: Test B pre-/postemergence herbicide test; assay type: in vivo, Echinochloa crus-galli; settings: for Plant response rating, Barnyardgrass: preemergence; for Barnyardgrass plant response rating: postemergence, visual rating, scale 0 (no effect) to 100 (complete control)
In short: as §3

ducksalad = test: Test B flooded paddy test; assay type: in vivo, Heteranthera limosa; settings: 1000 g ai/ha, visual rating, scale 0 to 100 (0 no effect, 100 complete control), 13 to 15 days
In short: (§4)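 Visual ratings, 0 (no effect) to 100 (complete control), made versus controls after 13–15 d greenhouse. Paddy plants treated at 2-leaf stage; postemergence plants at 1- to 4-leaf stage, 2–18 cm tall.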

rice [7] = test: Test B pre-/postemergence herbicide test; assay type: in vivo, Oryza sativa; settings: preemergence, 125 g ai/ha; 0 to 100 scale, 0 is no effect, 100 is complete control
In short: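 Evaluation is visual, comparing treated with control plants on a scale where 0 means no effect and 100 means full control. Treatments were preemergence, or postemergence on seedlings 2–18 cm tall, and held 13–15 days in the greenhouse.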

blackgrass = test: Test B postemergence herbicide test; assay type: in vivo, Alopecurus myosuroides; settings: postemergence, visual rating, scale 0 (no effect) to 100 (complete control)
In short: as §4

rice [8] = test: Test B flooded paddy test; assay type: in vivo, Oryza sativa; settings: 1000 g ai/ha, visual rating, scale 0 to 100 (0 no effect, 100 complete control), 13 to 15 days
In short: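 After treating 2-leaf paddy plants or 2–18 cm postemergence plants (1 to 4 leaves) with formulated chemical, researchers kept them in a greenhouse for 13–15 days. Effects were judged visually versus controls: 0 indicates none, 100 total control.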

[9] = tested on: small flower umbrella sedge; test: Test B flooded paddy test; assay type: in vivo, Cyperus difformis; settings: 1000 g ai/ha, visual rating, scale 0 to 100 (0 no effect, 100 complete control), 13 to 15 days
In short: as §4

giant foxtail [10] = test: Test A pre-/postemergence herbicide test; assay type: in vivo, Setaria faberi
In short: as §2

giant foxtail [11] = test: Test B pre-/postemergence herbicide test; assay type: in vivo, Setaria faberi; settings: for Plant response rating, Foxtail, Giant: preemergence; for Foxtail, Giant plant response rating: postemergence, visual rating, scale 0 (no effect) to 100 (complete control)
In short: as §1

pigweed = test: Test B pre-/postemergence herbicide test; assay type: in vivo, Amaranthus retroflexus; settings: for Plant response rating, Pigweed: preemergence; for Pigweed plant response rating: postemergence, visual rating, scale 0 (no effect) to 100 (complete control)
In short: as §1

barnyardgrass [12] = test: Test B flooded paddy test; assay type: in vivo, Echinochloa crus-galli; settings: 1000 g ai/ha, visual rating, scale 0 to 100 (0 no effect, 100 complete control), 13 to 15 days
In short: as §4

lambsquarters = test: Test B pre-/postemergence herbicide test; assay type: in vivo, Chenopodium album; settings: for Plant response rating, Lambsquarters: preemergence; for Lambsquarters plant response rating: postemergence, visual rating, scale 0 (no effect) to 100 (complete control)
In short: as §1

cocklebur = test: Test B pre-/postemergence herbicide test; assay type: in vivo, Xanthium strumarium; settings: for Plant response rating, Cocklebur: preemergence; for Cocklebur plant response rating: postemergence, visual rating, scale 0 (no effect) to 100 (complete control)
In short: as §3

wheat = test: Test B postemergence herbicide test; assay type: in vivo, Triticum aestivum; parameters: key to Wheat plant response rating: 0 = no effect, 100 = complete control; settings: postemergence, visual rating, scale 0 (no effect) to 100 (complete control)
In short: (§5)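 Formulated test chemicals went onto postemergence plants measuring 2 to 18 cm, at one to four leaves. For the paddy assay, species had reached two leaves. Scoring took place 13–15 days later by eye, relative to untreated plants, using 0 for no effect up to 100 for full control.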

wild oat = test: Test B postemergence herbicide test; assay type: in vivo, Avena fatua; settings: postemergence, visual rating, scale 0 (no effect) to 100 (complete control)
In short: as §5

redroot pigweed = test: Test A pre-/postemergence herbicide test; assay type: in vivo, Amaranthus retroflexus
In short: as §2

morningglory [13] = test: Test A pre-/postemergence herbicide test; assay type: in vivo, Ipomoea spp.
In short: as §2

Surinam grass = test: Test B pre-/postemergence herbicide test; assay type: in vivo, Urochloa decumbens; settings: for Plant response rating, Surinam Grass: preemergence; for Surinam Grass plant response rating: postemergence, visual rating, scale 0 (no effect) to 100 (complete control)
In short: as §1

large crabgrass [14] = test: Test A pre-/postemergence herbicide test; assay type: in vivo, Digitaria sanguinalis
In short: as §2

[15] = 500 g ai/ha, visual rating 0-100, 0 no effect, 100 complete control
[16] = 125 g ai/ha, 0 to 100 scale, 0 is no effect, 100 is complete control
[17] = Postemergence, 500 g ai/ha, 0 to 100 scale, 0 no effect, 100 complete control
[18] = Postemergence, 2000 g ai/ha, 0 to 100 scale, 0 no effect, 100 complete control
[19] = Preemergence, 2000 g ai/ha, visual rating, 0 to 100 scale (0 no effect, 100 complete control)
[20] = preemergence, 500 g ai/ha, visual injury, 0 to 100 scale (0 no effect, 100 complete control)
[21] = Preemergence, 500 g ai/ha, visual rating, 0 to 100 scale (0 no effect, 100 complete control)

CC(=O)c1cc(NC(=O)c2cc(C(C)(C)C)nn2C)ccc1F [Compound 123]
Plant response rating, Crabgrass, Large (large crabgrass [1]; [15]): 0 | Crabgrass, Large plant response rating (large crabgrass [1]; 125 g ai/ha): 0 | Crabgrass, Large plant response rating (large crabgrass [1]; 500 g ai/ha): 0 | Plant response rating, Crabgrass, Large (large crabgrass [1]; [16]): 0 | Velvetleaf plant response rating (velvetleaf [2]; [17]): 0 | Plant response rating, Velvetleaf (velvetleaf [2]; [18]): 10 | Velvetleaf plant response rating (velvetleaf [2]; [19]): 0 | Velvetleaf plant response rating (velvetleaf [2]; [20]): 0 | Plant response rating, Corn (corn; [15]): 0 | Corn plant response rating (corn; 125 g ai/ha): 0 | Corn plant response rating (corn; 500 g ai/ha): 0 | Plant response rating, Corn (corn; [16]): 0 | Barnyardgrass plant response rating (barnyardgrass [3]; [17]): 5 | Plant response rating, Barnyardgrass (barnyardgrass [3]; [18]): 20 | Barnyardgrass plant response rating (barnyardgrass [3]; [21]): 5 | Barnyardgrass plant response rating (barnyardgrass [3]; [19]): 50 | Plant response rating, Morningglory (morningglory [4]; [15]): 0 | Morningglory plant response rating (morningglory [4]; 125 g ai/ha): 0 | Morningglory plant response rating (morningglory [4]; 500 g ai/ha): 0 | Plant response rating, Morningglory (morningglory [4]; [16]): 0 | Plant response rating, Velvetleaf (velvetleaf [5]; [15]): 0 | Velvetleaf plant response rating (velvetleaf [5]; 125 g ai/ha): 0 | Velvetleaf plant response rating (velvetleaf [5]; 500 g ai/ha): 0 | Plant response rating, Velvetleaf (velvetleaf [5]; [16]): 0 | Plant response rating, Barnyardgrass (barnyardgrass [6]; [15]): 0 | Barnyardgrass plant response rating (barnyardgrass [6]; 125 g ai/ha): 0 | Barnyardgrass plant response rating (barnyardgrass [6]; 500 g ai/ha): 0 | Plant response rating, Barnyardgrass (barnyardgrass [6]; [16]): 0 | Ducksalad plant response rating (ducksalad): 50 | Plant response rating, Rice (rice [7]): 0 | Blackgrass plant response rating (blackgrass; 125 g ai/ha): 0 | Blackgrass plant response rating (blackgrass; 500 g ai/ha): 0 | Rice plant response rating (rice [8]): 0 | Sedge, Umbrella plant response rating [9]: 30 | Foxtail, Giant plant response rating (giant foxtail [10]; [17]): 0 | Plant response rating, Foxtail, Giant (giant foxtail [10]; [18]): 10 | Foxtail, Giant plant response rating (giant foxtail [10]; [21]): 0 | Foxtail, Giant plant response rating (giant foxtail [10]; [19]): 0 | Plant response rating, Foxtail, Giant (giant foxtail [11]; [15]): 0 | Foxtail, Giant plant response rating (giant foxtail [11]; 125 g ai/ha): 0 | Foxtail, Giant plant response rating (giant foxtail [11]; 500 g ai/ha): 0 | Plant response rating, Foxtail, Giant (giant foxtail [11]; [16]): 0 | Plant response rating, Pigweed (pigweed; [15]): 0 | Pigweed plant response rating (pigweed; 125 g ai/ha): 0 | Pigweed plant response rating (pigweed; 500 g ai/ha): 0 | Plant response rating, Pigweed (pigweed; [16]): 0 | Barnyardgrass plant response rating (barnyardgrass [12]): 0 | Plant response rating, Lambsquarters (lambsquarters; [15]): 0 | Lambsquarters plant response rating (lambsquarters; 125 g ai/ha): 0 | Lambsquarters plant response rating (lambsquarters; 500 g ai/ha): 0 | Plant response rating, Lambsquarters (lambsquarters; [16]): 0 | Plant response rating, Cocklebur (cocklebur; [15]): 0 | Cocklebur plant response rating (cocklebur; 125 g ai/ha): 0 | Cocklebur plant response rating (cocklebur; 500 g ai/ha): 0 | Plant response rating, Cocklebur (cocklebur; [16]): 0 | Wheat plant response rating (wheat; 125 g ai/ha): 0 | Wheat plant response rating (wheat; 500 g ai/ha): 0 | Oat, Wild plant response rating (wild oat; 125 g ai/ha): 0 | Oat, Wild plant response rating (wild oat; 500 g ai/ha): 0 | Pigweed plant response rating (redroot pigweed; [17]): 0 | Plant response rating, Pigweed (redroot pigweed; [18]): 15 | Pigweed plant response rating (redroot pigweed; [19]): 0 | Pigweed plant response rating (redroot pigweed; [20]): 0 | Morningglory plant response rating (morningglory [13]; [17]): 0 | Plant response rating, Morningglory (morningglory [13]; [18]): 10 | Morningglory plant response rating (morningglory [13]; [21]): 0 | Morningglory plant response rating (morningglory [13]; [19]): 0 | Plant response rating, Surinam Grass (Surinam grass; [15]): 0 | Surinam Grass plant response rating (Surinam grass; 125 g ai/ha): 0 | Surinam Grass plant response rating (Surinam grass; 500 g ai/ha): 0 | Plant response rating, Surinam Grass (Surinam grass; [16]): 0 | Crabgrass, Large plant response rating (large crabgrass [14]; [17]): 10 | Plant response rating, Crabgrass, Large (large crabgrass [14]; [18]): 10 | Crabgrass, Large plant response rating (large crabgrass [14]; [21]): 15 | Crabgrass, Large plant response rating (large crabgrass [14]; [19]): 0
